{"source": "patent US9637518B2", "about": "“IAP antagonists” (BRISTOL-MYERS SQUIBB COMPANY, priority 2014, dated 2017)", "key": {"[1]": {"target": "T1, His-BIR2-3 (125-356, C202A/C213G, XIAP) (Homo sapiens, UniProt P98170, C202A/C213G)", "T1 construct": "His-BIR2-3 (125-356, C202A/C213G, XIAP)", "T1 sequence (P98170 125-356 C202A/C213G)": "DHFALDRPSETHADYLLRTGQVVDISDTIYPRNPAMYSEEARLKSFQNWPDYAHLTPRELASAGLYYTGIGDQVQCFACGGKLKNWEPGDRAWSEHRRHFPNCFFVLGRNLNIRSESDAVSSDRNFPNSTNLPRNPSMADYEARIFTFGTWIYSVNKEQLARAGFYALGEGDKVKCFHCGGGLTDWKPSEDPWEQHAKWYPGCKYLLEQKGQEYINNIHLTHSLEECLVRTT", "assay": "XIAP-BIR2-3 dimeric SMAC Peptide Homogeneous Time Resolved Fluorescence (HTRF) Assay", "assay_type": "binding", "conditions": "0.5 nM N-His-BIR2-3, 20 nM fluorescein labeled dimeric SMAC peptide", "method": "B. XIAP-BIR2-3 dimeric SMAC Peptide Homogeneous Time Resolved Fluorescence (HTRF) Assay\nAssays were performed in black, flat-bottom, 384-well plates. The final assay volume was 50 μL prepared from additions of His-BIR2-3 (125-356, C202A/C213G, XIAP), fluorescein labeled dimeric SMAC peptide, and test compounds in assay buffer consisting of 20 mM Sodium Phosphate, 1 mM EDTA, 50 mM NaCl, 50 μg/ml BSA, and 0.05% PLURONIC® F68. The reaction was incubated at room temperature for 60 minutes, following which 10 μl of mouse anti-6×His-Tb IgG (Medarex, Cis-bio) was added to the reaction (40 μl) for an additional 30 minute incubation. The HTRF signal, ratio of fluorescence intensities at emission wavelengths for fluorescein acceptor (520 nm) and terbium donor (615 nm), the 520/615 ratio, generated by the reaction was then measured on the Envision Plate Reader. Inhibition data were calculated from the 520/615 ratio generated by the no protein control reactions for 100% inhibition and vehicle-only reactions for 0% inhibition. The final concentration of reagents in the assay was 0.5 nM N-His-BIR2-3(125-356, C202A/C213G, XIAP), 20 nM fluorescein labeled dimeric SMAC peptide, 0.25 nM anti-His-Tb-Fab, and 0.1% DMSO. Dose response curves were generated to determine the concentration required for inhibiting 50% of the HTRF signal (IC50). Compounds were dissolved at 3 mM in dimethylsulfoxide (DMSO) and evaluated at eleven serially diluted concentrations. IC50 and Ki values were derived by non-linear regression analysis."}, "[2]": {"target": "T2, His-BIR3 (241-356, XIAP) (Homo sapiens, UniProt P98170)", "T2 construct": "His-BIR3 (241-356, XIAP)", "T2 sequence (P98170 241-356)": "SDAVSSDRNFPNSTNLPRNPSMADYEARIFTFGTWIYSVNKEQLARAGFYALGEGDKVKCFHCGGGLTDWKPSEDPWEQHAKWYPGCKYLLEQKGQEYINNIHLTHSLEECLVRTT", "assay": "XIAP-BIR3/SMAC Homogeneous Time Resolved Fluorescence (HTRF) Assay", "assay_type": "binding", "conditions": "1 nM N-His-BIR3, 5 nM fluorescein labeled SMAC peptide", "method": "A. XIAP-BIR3/SMAC Homogeneous Time Resolved Fluorescence (HTRF) Assay\nAssays were performed in black, flat-bottom, 384-well plates. The final assay volume was 50 μL prepared from additions of His-BIR3 (241-356, XIAP), fluorescein labeled SMAC peptide, and test compounds in assay buffer consisting of 20 mM Sodium Phosphate, 1 mM EDTA, 50 mM NaCl, 50 μg/ml BSA, and 0.05% PLURONIC® F68. The reaction was incubated at room temperature for 60 minutes, following which 10 μl of mouse anti-6×His-terbium labeled Fab (Medarex, Cis-bio) was added to the reaction (40 μl) for an additional 30 minute incubation. The HTRF signal, ratio of fluorescence intensities at emission wavelengths for fluorescein acceptor (520 nm) and terbium donor (615 nm), the 520/615 ratio, generated by the reaction was then measured on the Envision Plate Reader Inhibition data were calculated from the 520/615 ratio generated by the no protein control reactions for 100% inhibition and vehicle-only reactions for 0% inhibition. The final concentration of reagents in the assay was 1 nM N-His-BIR3 (241-356, XIAP), 5 nM fluorescein labeled SMAC peptide, 0.25 nM anti-His-Tb-Fab, and 0.1% DMSO. Dose response curves were generated to determine the concentration required for inhibiting 50% of the HTRF signal (IC50). Compounds were dissolved at 3 mM in dimethylsulfoxide (DMSO) and evaluated at eleven serially diluted concentrations. IC50 and Ki values were derived by non-linear regression analysis."}}}
{"smiles": "CN[C@@H](C)C(=O)N[C@H](C(=O)N1C[C@@H](c2ccc(C[C@H](NC(=O)[C@@H](NC(=O)[C@H](C)NC)C(C)(C)SCC(=O)N(C)C[C@@H](O)CO)C(=O)N[C@@H]3CCCc4ccccc43)cc2)C[C@H]1C(=O)N[C@@H]1CCCc2ccccc21)C(C)(C)C", "note": "[Example 1, (2S,4R)-4-(4-((S)-2-((R)-3-((2-(((R)-2,3-Dihydroxypropyl)(methyl)amino)-2-oxoethyl)thio)-3-methyl-2-((S)-2-(methylamino)propanamido)butanamido)-3-oxo-3-(((R)-1,2,3,4-tetrahydronaphthalen-1-yl)amino)propyl)phenyl)-1-((S)-3,3-dimethyl-2-((S)-2-(methylamino)propanamido)butanoyl)-N—((R)-1,2,3,4-tetrahydronaphthalen-1-yl)pyrrolidine-2-carboxamide]", "values": [{"measurement": "IC50", "setting": "[1]", "result": 12.3, "unit": "nM"}, {"measurement": "IC50", "setting": "[2]", "result": 1.7, "unit": "nM"}]}
{"smiles": "CN[C@@H](C)C(=O)N[C@H](C(=O)N1C[C@@H](c2ccc(C[C@H](NC(=O)[C@@H](NC(=O)[C@H](C)NC)C(C)(C)SCCO)C(=O)N[C@@H]3CCCc4ccccc43)cc2)C[C@H]1C(=O)N[C@@H]1CCCc2ccccc21)C(C)(C)C", "note": "[Example 2, (2S,4R)-1-((S)-3,3-Dimethyl-2-((S)-2-(methylamino)propanamido)butanoyl)-4-(4-((S)-2-((R)-3-((2-hydroxyethyl)thio)-3-methyl-2-((S)-2-(methylamino)propanamido)butanamido)-3-oxo-3-(((R)-1,2,3,4-tetrahydronaphthalen-1-yl)amino)propyl)phenyl)-N—((R)-1,2,3,4-tetrahydronaphthalen-1-yl)pyrrolidine-2-carboxamide]", "values": [{"measurement": "IC50", "setting": "[1]", "result": 7, "unit": "nM"}, {"measurement": "IC50", "setting": "[2]", "result": 1.7, "unit": "nM"}]}
{"smiles": "CN[C@@H](C)C(=O)N[C@H](C(=O)N[C@@H](Cc1ccc([C@H]2C[C@@H](C(=O)N[C@@H]3CCCc4ccccc43)N(C(=O)[C@@H](NC(=O)[C@H](C)NC)C(C)(C)C)C2)cc1)C(=O)N[C@@H]1CCCc2ccccc21)C(C)(C)C", "note": "[Example 3, (2S,4R)-4-(4-((S)-2-((S)-3,3-Dimethyl-2-((S)-2-(methylamino)propanamido)butanamido)-3-oxo-3-(((R)-1,2,3,4-tetrahydronaphthalen-1-yl)amino)propyl)phenyl)-1-((S)-3,3-dimethyl-2-((S)-2-(methylamino)propanamido)butanoyl)-N—((R)-1,2,3,4-tetrahydronaphthalen-1-yl)pyrrolidine-2-carboxamide]", "values": [{"measurement": "IC50", "setting": "[1]", "result": 6.8, "unit": "nM"}, {"measurement": "IC50", "setting": "[2]", "result": 1.1, "unit": "nM"}]}
{"smiles": "CN[C@@H](C)C(=O)N[C@H](C(=O)N1C[C@@H](NC(=O)c2ccc(C(=O)Nc3ccc(C[C@H](NC(=O)[C@@H](NC(=O)[C@H](C)NC)C(C)(C)SC)C(=O)N[C@@H]4CCCc5ccccc54)cc3)cc2)C[C@H]1C(=O)N[C@@H]1CCCc2ccccc21)C(C)(C)C", "note": "[Example 4, N^1-((3S,5S)-1-((S)-3,3-Dimethyl-2-((S)-2-(methylamino)propanamido)butanoyl)-5-(((R)-1,2,3,4-tetrahydronaphthalen-1-yl)carbamoyl)pyrrolidin-3-yl)-N^4-(4-((S)-2-((R)-3-methyl-2-((S)-2-(methylamino)propanamido)-3-(methylthio)butanamido)-3-oxo-3-(((R)-1,2,3,4-tetrahydronaphthalen-1-yl)amino)propyl)phenyl)terephthalamide]", "values": [{"measurement": "IC50", "setting": "[1]", "result": 2.9, "unit": "nM"}, {"measurement": "IC50", "setting": "[2]", "result": 13.8, "unit": "nM"}]}
{"smiles": "CN[C@@H](C)C(=O)N[C@H](C(=O)N[C@@H](Cc1ccc(C(=O)N[C@H]2C[C@@H](C(=O)N[C@@H]3CCCc4ccccc43)N(C(=O)[C@@H](NC(=O)[C@H](C)NC)C(C)(C)C)C2)cc1)C(=O)N[C@@H]1CCCc2ccccc21)C(C)(C)C", "note": "[Example 5, (2S,4S)-4-(4-((S)-2-((S)-3,3-Dimethyl-2-((S)-2-(methylamino)propanamido)butanamido)-3-oxo-3-(((R)-1,2,3,4-tetrahydronaphthalen-1-yl)amino)propyl)benzamido)-1-((S)-3,3-dimethyl-2-((S)-2-(methylamino)propanamido)butanoyl)-N—((R)-1,2,3,4-tetrahydronaphthalen-1-yl)pyrrolidine-2-carboxamide]", "values": [{"measurement": "IC50", "setting": "[1]", "result": 13.7, "unit": "nM"}, {"measurement": "IC50", "setting": "[2]", "result": 9, "unit": "nM"}]}
{"smiles": "CN[C@@H](C)C(=O)N[C@H](C(=O)N1C[C@@H](c2ccc(C[C@H](NC(=O)[C@@H](NC(=O)[C@H](C)NC)C(C)(C)SCC(=O)NC(CO)CO)C(=O)NC3CCCc4ccccc43)cc2)C[C@H]1C(=O)NC1CCCc2ccccc21)C(C)(C)C", "note": "(stereo partly shown) [Example 6]", "values": [{"measurement": "IC50", "setting": "[1]", "result": 8.1, "unit": "nM"}, {"measurement": "IC50", "setting": "[2]", "result": 1.4, "unit": "nM"}]}
{"smiles": "CN[C@@H](C)C(=O)N[C@H](C(=O)N[C@@H](Cc1ccc([C@H]2C[C@@H](C(=O)N[C@@H](COC)c3ccccc3)N(C(=O)[C@@H](NC(=O)[C@H](C)NC)C(C)(C)C)C2)cc1)C(=O)N[C@@H]1CCCc2ccccc21)C(C)(C)C", "note": "[Example 7, (2S,4R)-4-(4-((S)-2-((S)-3,3-Dimethyl-2-((S)-2-(methylamino)propanamido)butanamido)-3-oxo-3-(((R)-1,2,3,4-tetrahydronaphthalen-1-yl)amino)propyl)phenyl)-1-((S)-3,3-dimethyl-2-((S)-2-(methylamino)propanamido)butanoyl)-N-((R)-2-methoxy-1-phenylethyl)pyrrolidine-2-carboxamide]", "values": [{"measurement": "IC50", "setting": "[1]", "result": 140, "unit": "nM"}, {"measurement": "IC50", "setting": "[2]", "result": 48.4, "unit": "nM"}]}
{"smiles": "CN[C@@H](C)C(=O)N[C@H](C(=O)N[C@@H](Cc1ccc(NC(=O)c2ccc(C(=O)N[C@H]3C[C@@H](C(=O)N[C@@H]4CCCc5ccccc54)N(C(=O)[C@@H](NC(=O)[C@H](C)NC)C(C)(C)C)C3)cc2)cc1)C(=O)N[C@@H]1CCCc2ccccc21)C1CCCCC1", "note": "[Example 8, N^1-(4-((S)-2-((S)-2-Cyclohexyl-2-((S)-2-(methylamino)propanamido)acetamido)-3-oxo-3-(((R)-1,2,3,4-tetrahydronaphthalen-1-yl)amino)propyl)phenyl)-N^4-((3S,5S)-1-((S)-3,3-dimethyl-2-((S)-2-(methylamino)propanamido)butanoyl)-5-(((R)-1,2,3,4-tetrahydronaphthalen-1-yl)carbamoyl)pyrrolidin-3-yl)terephthalamide]", "values": [{"measurement": "IC50", "setting": "[1]", "result": 9.5, "unit": "nM"}, {"measurement": "IC50", "setting": "[2]", "result": 119, "unit": "nM"}]}
